Experimental data reported in US20140170236A1, “USE OF PHOSPHORIC ACID” (priority 2010, published 2014).
Read-outs that look alike come from different tables or passages of the source.

Columns and labels:
[1] = Example 1 subject; 2.5 mL daily (183 mg phosphorus)
calcified plaque = details: Example 1 subject; two years after angiogram that showed extensive calcified plaque
Experimental: (§1) The cardiac interventionist prescribed the same kind of drug therapy as above. A stress test was conducted at this time to provide a baseline for comparing with possible future stress tests.
(§2) The subject then took a 2.5 mL daily dose of a 23.8% (mg/L) solution of phosphoric acid composition comprising 183 mg of phosphorus for a period of twelve months. This represented 26% of the RDA of phosphorous (700 mg) for an adult.

coronary condition = details: Example 1 subject; after twelve months of 2.5 mL daily (183 mg phosphorus); baseline stress test positive
Experimental: as §1, §2

[2] = tested on: soft plaque in the arteries; details: Example 2 subject; at the time of the third CT calcium scan; no CTA scan before treatment
Description: At the same time the most recent CT calcium scan was done, a Computed Tomography Angiography (CTA) scan was also done with contrast dye to determine the amount of soft plaque in the arteries.

[3] = tested on: calcified plaque in the coronary arteries
Description: A coronary computed tomography (CT) calcium scan is a test to assess the build up of plaque (calcification) in the coronary arteries. Because calcium is a component of hard plaque and is a marker of coronary artery disease (CAD) such a scan can be used as a diagnostic tool for CAD. The amount of calcium detected on a CT scan, expressed as a calcium score, reflects the degree and extent of calcium deposits on the walls of coronary arteries. Once calcified plaque begins to accumulate on arterial walls the amount deposited increases logarithmically at a rate of 15% to 30% a year.
The calcium score is an indicator of potential heart risk. […] A higher score is indicative of an increased risk and cardiologists express concern of the possibility of a heart incident at various levels but especially at 400 or above. Some treatments such as the product Crestor®, claim to slow the rate of deposition of plaque.
as §2
(§3) The risk assessment assumed that the calcified plaque would increase at the usual anticipated rate of approximately 15% to 30% a year. They took a daily dose of 2.5 ml of a 23.8% (mg/L) phosphoric acid in water, (183 mg of phosphorus) for a period of six months. […] A third CT calcium scan was performed approximately three months after increasing the dose. This was eight months and twenty days after the initial dosing with phosphoric acid.
The subject takes Famotadine for acid reflux and continues to smoke “one or two cigars a week.” The subject began taking a daily dose of 3.75 ml of a 23.8% (mg/L) phosphoric acid solution.
They currently take lipid lowering medication. They began taking 3.75 ml of a 23.8% (mg/L) phosphoric acid solution shortly after […] CT Calcium Scan.
Their medications includes: Benicar®, Crestor®, Niaspan®, and Lovaza®. Two and a half months after having the first Calcium Score assessment they began taking a daily dose of 3.75 ml of a 23.8% (mg/L) phosphoric acid solution. […] Note, cadaver studies consistently indicate that smokers are more prone to advanced artery disease.

[4] = Experimental: as §3

With `O=P(O)(O)O` [phosphoric acid] the “bone density on bone scan” value [1] was “normal bone density”, the “calcified plaque on CT Angiogram” value (calcified plaque) was “no calcified plaque except in the area of the stent” and the “second stress echo test result” value (coronary condition) was “negative”. For the same molecule, the soft plaque score [2] was 0, the “% Whose Ca Score Increased” value ([3]; All, sample size 5) was 20% and the calcium score ([3]; Example 1 subject (man, stent), 2.5 mL daily of 23.8% (mg/L) solution, 183 mg phosphorus, after one year, no base score) was 29. The “probability of a heart attack in the next 10 years” value ([3]; Example 1 subject, after one year of 2.5 mL daily (183 mg phosphorus)) was 10%, the calcium score ([3]; Example 2 subject, initial score 181, 2.5 ml daily (183 mg phosphorus), second CT scan at six months) was 181 and the calcium score ([3]; Example 2 subject, initial score 181, third scan eight months and twenty days after initial dosing, about three months after increase to 3.75 ml (274 mg phosphorus)) was 179. For the same molecule, the calcium score ([3]; Example 3 subject, initial score 193, 3.75 ml daily of 23.8% (mg/L) solution, approximately six months) was 122, the “reduction of calcium score” value ([3]; Example 3 subject, 193 to 122, approximately six months of 3.75 ml daily) was 37% and the calcium score ([3]; Example 4 subject, initial score 85, 3.75 ml of 23.8% (mg/L) solution, eight months) was 83. For the same molecule, the “calcium score lower than the initial score” value ([3]; Example 4 subject, 85 to 83, eight months) was 2 points, the “annual rate of increase of calcium score” value ([3]; Example 5 subject) was 13.4% and the calcium score ([3]; Example 5 subject (heavy smoker), initial score 117, 3.75 ml daily of 23.8% (mg/L) solution, eight months after start) was 130. For the same molecule, the “increase of calcium score” value ([3]; Example 5 subject, 117 to 130) was 11%, the “% Whose Ca Score Increased” value ([3]; Non-Smokers, sample size 4) was 0% and the “% Whose Ca Score Increased” value ([3]; Smokers, sample size 1) was 100%. The “side-effects related to the phosphoric acid composition” value ([4]; Example 1 subject, 2.5 mL daily (183 mg phosphorus)) was “no side-effects” and the “side effects at the higher dose level” value ([4]; Example 2 subject, daily dose 3.75 ml (274 mg phosphorus)) was “no side effects”.
